Test systems include SK-MEL-5 melanoma; K-562 leukemia; UO-31 renal; SF-295 CNS; MALME-3M melanoma; A549 NSCLC; MCF7 breast; RXF 393 renal; HOP-62 NSCLC; OVCAR-5 ovarian.
What all share (test): inhibition of tumour cell growth, NCI panel, 48 h

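1) Cells in 96-well plates. 2) Compound, 48 h, 5 concentrations. 3) Linear interpolation between surrounding doses. 4) Unreached endpoint = highest concentration. Definition used: TGI = concentration required for complete inhibition of growth.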

On to `Cc1ccc([C@H]2CC(=O)C[C@H](c3ccc(C)cc3)C23C(=O)c2ccccc2C3=O)cc1`, for which the TGI is above 100 µM with SK-MEL-5 melanoma; above 100 µM with K-562 leukemia; above 100 µM in the experiment with UO-31 renal; 51.9 µM in the experiment on SF-295 CNS; above 100 µM in the experiment on MALME-3M melanoma; above 100 µM with A549 NSCLC. Moreover, the TGI with MCF7 breast was above 100 µM; with RXF 393 renal, 39 µM; in the experiment on HOP-62 NSCLC it was 41.8 µM; in the experiment on OVCAR-5 ovarian, above 100 µM.

With `CN(C)Cc1cc(C(=O)/C=C/c2ccccc2Cl)cc(CN(C)C)c1O`, the TGI with SK-MEL-5 melanoma is 26.1 µM; in the experiment with K-562 leukemia it was 24.3 µM; in the experiment on UO-31 renal, 22.4 µM; with SF-295 CNS, 28.3 µM; in the experiment with MALME-3M melanoma it was 23.5 µM; with A549 NSCLC it was 38.7 µM. Further, the TGI in the experiment with MCF7 breast was 26.1 µM; with RXF 393 renal, 41.7 µM; with HOP-62 NSCLC it was 26.2 µM; in the experiment on OVCAR-5 ovarian it was 40.2 µM.

For the molecule `CCC1(C)N=C(c2cnccn2)NN1c1ccc(Cl)cc1` (stereo not given), the TGI with SK-MEL-5 melanoma, with K-562 leukemia, with UO-31 renal, with SF-295 CNS, in the experiment on MALME-3M melanoma and in the experiment on A549 NSCLC was above 100 µM in each case. Moreover, the TGI with MCF7 breast, with RXF 393 renal, in the experiment on HOP-62 NSCLC and in the experiment on OVCAR-5 ovarian was above 100 µM each time.

Take `CC(=O)c1ccc2c3c1[C@@H]1O[C@@H]1c1cccc(c1-3)[C@@H]1O[C@H]21`: the TGI was 26 µM with SK-MEL-5 melanoma; above 100 µM with K-562 leukemia; 30.2 µM in the experiment on UO-31 renal; 38.3 µM with SF-295 CNS; 20.3 µM with MALME-3M melanoma; 37.4 µM with A549 NSCLC. In addition, the TGI in the experiment on MCF7 breast is above 40.1 µM; in the experiment on RXF 393 renal it was 25.8 µM; with HOP-62 NSCLC it was 36.6 µM; in the experiment with OVCAR-5 ovarian, 34.7 µM.

As to `CCOC(=O)/C=C(\C(=O)OCC)n1cc(C)c(=O)n(Cc2cnnn2CCCCOC(C)=O)c1=O`, the TGI in the experiment on SK-MEL-5 melanoma was above 52.2 µM; in the experiment with K-562 leukemia, above 35.9 µM; with UO-31 renal, 30 µM; in the experiment with SF-295 CNS, above 76 µM; in the experiment with MALME-3M melanoma, 3.79 µM; in the experiment on A549 NSCLC, 60.7 µM. Further, the TGI in the experiment on MCF7 breast was 21.5 µM; in the experiment on RXF 393 renal, 9.1 µM; in the experiment on HOP-62 NSCLC it was above 68.1 µM; in the experiment on OVCAR-5 ovarian, 39.5 µM.

With `CCC(C#N)NC(=O)NC(C#N)CC` (stereo not given), the TGI with SK-MEL-5 melanoma, with K-562 leukemia, in the experiment on UO-31 renal, in the experiment on SF-295 CNS, with MALME-3M melanoma and in the experiment on A549 NSCLC was above 100 µM in each case. The TGI in the experiment on MCF7 breast, in the experiment with RXF 393 renal, with HOP-62 NSCLC and with OVCAR-5 ovarian was above 100 µM each time.

Turning to `Cc1[nH]c(=O)[nH]c(=O)c1/C=C/C(=O)O`, the TGI in the experiment with SK-MEL-5 melanoma, with K-562 leukemia, with UO-31 renal, in the experiment on SF-295 CNS, with MALME-3M melanoma and with A549 NSCLC was above 1000 µM in each case. In addition, the TGI in the experiment with MCF7 breast, with RXF 393 renal, with HOP-62 NSCLC and with OVCAR-5 ovarian was above 1000 µM in each case.

For `O=C(NCCCCCCNCc1cccc2ccccc12)Nc1cccc2ccccc12`, the TGI in the experiment on SK-MEL-5 melanoma, in the experiment on K-562 leukemia, with UO-31 renal, with SF-295 CNS, in the experiment with MALME-3M melanoma and in the experiment with A549 NSCLC was above 100 µM throughout. The TGI in the experiment with MCF7 breast, in the experiment on RXF 393 renal, with HOP-62 NSCLC and in the experiment with OVCAR-5 ovarian was above 100 µM each time.

As to `Nc1ccc2[nH]c3c(-c4ccccc4)nccc3c2c1`, the TGI with SK-MEL-5 melanoma is above 31.6 µM; in the experiment on K-562 leukemia it was above 100 µM; in the experiment on UO-31 renal, above 100 µM; with SF-295 CNS it was above 100 µM; with MALME-3M melanoma, above 100 µM; in the experiment on A549 NSCLC it was above 100 µM. In addition, the TGI was above 100 µM in the experiment on MCF7 breast, above 96.5 µM with RXF 393 renal, above 100 µM in the experiment on HOP-62 NSCLC and above 100 µM in the experiment with OVCAR-5 ovarian.

For the molecule `Nc1cccc(Nc2nc3ccccc3nc2NS(=O)(=O)c2ccccc2)c1`, the TGI is 29.8 µM in the experiment with SK-MEL-5 melanoma; 76.3 µM with K-562 leukemia; 50.4 µM with UO-31 renal; above 100 µM in the experiment with SF-295 CNS; 72.7 µM in the experiment on MALME-3M melanoma; above 100 µM in the experiment on A549 NSCLC. The TGI in the experiment on MCF7 breast was above 100 µM; with RXF 393 renal it was 38.7 µM; with HOP-62 NSCLC it was 96.2 µM; in the experiment on OVCAR-5 ovarian, above 100 µM.

Take `COC(=O)C1=C(C(=O)OC)SC2(S1)C1=C(CCCC1)SC(C(=O)OC)=C2C(=O)OC`: the TGI with SK-MEL-5 melanoma was 23.4 µM; with K-562 leukemia it was 21.5 µM; in the experiment on UO-31 renal, 10.9 µM; in the experiment with SF-295 CNS, 27.8 µM; with MALME-3M melanoma it was 24.3 µM; with A549 NSCLC, 31.1 µM. Further, the TGI in the experiment with MCF7 breast came to 8.43 µM; with RXF 393 renal, 6.91 µM; with HOP-62 NSCLC, 17.8 µM; in the experiment with OVCAR-5 ovarian, 25.4 µM.

On to `COC(=O)[C@@H]1CCCN1CCN1CCC[C@H]1C(=O)OC`, for which the TGI in the experiment on SK-MEL-5 melanoma, with K-562 leukemia, in the experiment with UO-31 renal, with SF-295 CNS, with MALME-3M melanoma and in the experiment with A549 NSCLC was above 100 µM each time. Further, the TGI in the experiment on MCF7 breast, with RXF 393 renal, with HOP-62 NSCLC and with OVCAR-5 ovarian was above 100 µM each time.

Consider `CN(NC(=O)c1cccs1)C1=NCCCN1`, for which the TGI in the experiment with SK-MEL-5 melanoma, with K-562 leukemia, in the experiment on UO-31 renal, in the experiment on SF-295 CNS, in the experiment on MALME-3M melanoma and in the experiment on A549 NSCLC was above 100 µM throughout. Further, the TGI with MCF7 breast, in the experiment with RXF 393 renal, in the experiment on HOP-62 NSCLC and in the experiment with OVCAR-5 ovarian was above 100 µM throughout.

As to `Nc1ccc(N=Nc2ccccc2)cc1`, the TGI was above 100 µM in the experiment with SK-MEL-5 melanoma; above 100 µM with K-562 leukemia; above 100 µM with UO-31 renal; 57.1 µM in the experiment on SF-295 CNS; above 100 µM in the experiment with MALME-3M melanoma; above 100 µM in the experiment with A549 NSCLC. Moreover, the TGI in the experiment on MCF7 breast, with RXF 393 renal, in the experiment with HOP-62 NSCLC and in the experiment with OVCAR-5 ovarian was above 100 µM in each case.

For `O=C(NC(Cc1ccc(I)cc1)C(=O)O)c1ccc(Br)cc1` (stereo not given), the TGI with SK-MEL-5 melanoma, in the experiment on K-562 leukemia, in the experiment with UO-31 renal, in the experiment with SF-295 CNS, with MALME-3M melanoma and in the experiment with A549 NSCLC was above 100 µM each time. The TGI with MCF7 breast, with RXF 393 renal, in the experiment on HOP-62 NSCLC and in the experiment with OVCAR-5 ovarian was above 100 µM each time.

Regarding `O=c1c2ncn(COCCCl)c2n(-c2ccccc2)c(=S)n1-c1ccccc1`, the TGI in the experiment with SK-MEL-5 melanoma, with K-562 leukemia, in the experiment with UO-31 renal, in the experiment on SF-295 CNS, in the experiment on MALME-3M melanoma and in the experiment on A549 NSCLC was above 100 µM each time. For the same molecule, the TGI in the experiment with MCF7 breast, in the experiment with RXF 393 renal, in the experiment with HOP-62 NSCLC and in the experiment with OVCAR-5 ovarian was above 100 µM in each case.

In the case of `COc1ccc(/C=N/N=C(\N)NO)c(O)c1`, the TGI in the experiment with SK-MEL-5 melanoma, in the experiment with K-562 leukemia, in the experiment on UO-31 renal, in the experiment with SF-295 CNS, in the experiment on MALME-3M melanoma and in the experiment with A549 NSCLC was above 10 µM in each case. In addition, the TGI with MCF7 breast, in the experiment with RXF 393 renal, in the experiment with HOP-62 NSCLC and in the experiment on OVCAR-5 ovarian was above 10 µM in each case.

Take `N#Cc1c(-c2ccccc2)nc(-c2ccccc2)sc1=S`: the TGI with SK-MEL-5 melanoma, with K-562 leukemia, with UO-31 renal, in the experiment on SF-295 CNS, in the experiment on MALME-3M melanoma and in the experiment with A549 NSCLC was above 100 µM in each case. The TGI in the experiment with MCF7 breast, in the experiment with RXF 393 renal, in the experiment with HOP-62 NSCLC and with OVCAR-5 ovarian was above 100 µM throughout.

Turning to `CC(=O)O[C@H]1CC[C@@]2(C)C(=CC[C@H]3[C@@H]4C[C@H](N5CCCC5)[C@H](OC(C)=O)[C@@]4(C)CC[C@@H]32)C1`, the TGI is 54.8 µM in the experiment with SK-MEL-5 melanoma; above 67.4 µM in the experiment on K-562 leukemia; above 100 µM in the experiment on UO-31 renal; above 100 µM in the experiment with SF-295 CNS; above 74.3 µM with MALME-3M melanoma; above 100 µM with A549 NSCLC. The TGI with MCF7 breast, with RXF 393 renal, in the experiment on HOP-62 NSCLC and in the experiment with OVCAR-5 ovarian was above 100 µM in each case.

As for `Cc1ccc(-c2cc(N)n(-c3nc4c(c(=O)n(C)c(=O)n4C)n3C)n2)cc1`, the TGI in the experiment on SK-MEL-5 melanoma, in the experiment on K-562 leukemia, in the experiment on UO-31 renal, in the experiment with SF-295 CNS, in the experiment with MALME-3M melanoma and in the experiment with A549 NSCLC was above 100 µM each time. Further, the TGI is above 100 µM in the experiment with MCF7 breast, above 100 µM in the experiment on RXF 393 renal, 63.9 µM in the experiment on HOP-62 NSCLC and above 100 µM with OVCAR-5 ovarian.
